Organism: Rattus norvegicus
Assay: DrugMatrix - Regimen: Daily Repeat
Type: toxicity, organism-based, Sprague-Dawley
Set-up: regimen Daily Repeat, gender Male, age 6-8 weeks
Details: in vivo, po, route oral GAVAGE, vehicle 100 % WATER; for ABSOLUTE BASOPHIL / ABSOLUTE EOSINOPHIL / ABSOLUTE LYMPHOCYTE / ABSOLUTE MONOCYTE / ABSOLUTE SEGMENTED NEUTROPHIL / BASOPHIL / EOSINOPHIL / ERYTHROCYTE COUNT / HEMATOCRIT / HEMOGLOBIN / LEUKOCYTE COUNT / LYMPHOCYTE / MEAN CORPUSCULAR HEMOGLOBIN / MEAN CORPUSCULAR HEMOGLOBIN CONCENTRATION / MEAN CORPUSCULAR VOLUME / MONOCYTE / NEUTROPHIL / NUCLEATED RED BLOOD CELLS / PLATELET COUNT: tissue Blood; for ALANINE AMINOTRANSFERASE / ALBUMIN / ALKALINE PHOSPHATASE / ASPARTATE AMINOTRANSFERASE / BLOOD UREA NITROGEN / CARBON DIOXIDE / CHLORIDE / CHOLESTEROL / CREATINE PHOSPHOKINASE / CREATININE / GLUCOSE / LACTATE DEHYDROGENASE / LIPASE / PHOSPHORUS / POTASSIUM / SODIUM / TOTAL BILIRUBIN / TOTAL PROTEIN / URIC ACID: tissue Plasma
[1] = 20 mg/kg, 72 h, dose level Low, time 3 day
[2] = 20 mg/kg, 120 h, dose level Low, time 5 day
[3] = 266 mg/kg, 72 h, dose level High, time 3 day
[4] = 266 mg/kg, 120 h, dose level High, time 5 day

O=C(NCCN1CCOCC1)c1ccc(Cl)cc1 [MOCLOBEMIDE]
ABSOLUTE BASOPHIL [1]: 0 CELLS/uL | ABSOLUTE EOSINOPHIL [1]: 175 CELLS/uL | ABSOLUTE LYMPHOCYTE [1]: 12157.33 CELLS/uL | ABSOLUTE MONOCYTE [1]: 176.67 CELLS/uL | ABSOLUTE SEGMENTED NEUTROPHIL [1]: 691 CELLS/uL | BASOPHIL [1]: 0% | EOSINOPHIL [1]: 1% | ERYTHROCYTE COUNT [1]: 5.68 x10E6/uL | HEMATOCRIT [1]: 34.7% | HEMOGLOBIN [1]: 13.23 G/DL | LEUKOCYTE COUNT [1]: 13.2 x10E3/uL | LYMPHOCYTE [1]: 92.33% | MEAN CORPUSCULAR HEMOGLOBIN [1]: 23.33 pg | MEAN CORPUSCULAR HEMOGLOBIN CONCENTRATION [1]: 38.13 G/DL | MEAN CORPUSCULAR VOLUME [1]: 61.13 fL | MONOCYTE [1]: 1.33% | NEUTROPHIL [1]: 5.33% | NUCLEATED RED BLOOD CELLS [1]: 0 /100WBC | PLATELET COUNT [1]: 1220 x10E3/uL | ALANINE AMINOTRANSFERASE [1]: 54.33 u/L | ALBUMIN [1]: 4.07 G/DL | ALKALINE PHOSPHATASE [1]: 345 u/L | ASPARTATE AMINOTRANSFERASE [1]: 110.33 u/L | BLOOD UREA NITROGEN [1]: 17.33 mg/dL | CARBON DIOXIDE [1]: 23.67 mmol/L | CHLORIDE [1]: 102.67 MEQ/L | CHOLESTEROL [1]: 74 mg/dL | CREATINE PHOSPHOKINASE [1]: 379 u/L | CREATININE [1]: 0.2 mg/dL | GLUCOSE [1]: 174.67 mg/dL | LACTATE DEHYDROGENASE [1]: 728 u/L | LIPASE [1]: 9.67 u/L | PHOSPHORUS [1]: 14.07 mg/dL | POTASSIUM [1]: 6.99 MEQ/L | SODIUM [1]: 145.9 MEQ/L | TOTAL BILIRUBIN [1]: 0.2 mg/dL | TOTAL PROTEIN [1]: 5.7 G/DL | URIC ACID [1]: 2.03 mg/dL | ABSOLUTE BASOPHIL [2]: 0 CELLS/uL | ABSOLUTE EOSINOPHIL [2]: 0 CELLS/uL | ABSOLUTE LYMPHOCYTE [2]: 15547 CELLS/uL | ABSOLUTE MONOCYTE [2]: 117.33 CELLS/uL | ABSOLUTE SEGMENTED NEUTROPHIL [2]: 1669 CELLS/uL | BASOPHIL [2]: 0% | EOSINOPHIL [2]: 0% | ERYTHROCYTE COUNT [2]: 5.91 x10E6/uL | HEMATOCRIT [2]: 36.73% | HEMOGLOBIN [2]: 14.33 G/DL | LEUKOCYTE COUNT [2]: 17.33 x10E3/uL | LYMPHOCYTE [2]: 89.67% | MEAN CORPUSCULAR HEMOGLOBIN [2]: 24.33 pg | MEAN CORPUSCULAR HEMOGLOBIN CONCENTRATION [2]: 39 G/DL | MEAN CORPUSCULAR VOLUME [2]: 62.4 fL | MONOCYTE [2]: 0.67% | NEUTROPHIL [2]: 9.67% | NUCLEATED RED BLOOD CELLS [2]: 0 /100WBC | PLATELET COUNT [2]: 1391.67 x10E3/uL | ALANINE AMINOTRANSFERASE [2]: 57 u/L | ALBUMIN [2]: 4.1 G/DL | ALKALINE PHOSPHATASE [2]: 322.67 u/L | ASPARTATE AMINOTRANSFERASE [2]: 96.67 u/L | BLOOD UREA NITROGEN [2]: 15 mg/dL | CARBON DIOXIDE [2]: 27.33 mmol/L | CHLORIDE [2]: 101.33 MEQ/L | CHOLESTEROL [2]: 70.67 mg/dL | CREATINE PHOSPHOKINASE [2]: 318 u/L | CREATININE [2]: 0.17 mg/dL | GLUCOSE [2]: 156.67 mg/dL | LACTATE DEHYDROGENASE [2]: 488 u/L | LIPASE [2]: 9.67 u/L | PHOSPHORUS [2]: 13.7 mg/dL | POTASSIUM [2]: 6.88 MEQ/L | SODIUM [2]: 145.17 MEQ/L | TOTAL BILIRUBIN [2]: 0.17 mg/dL | TOTAL PROTEIN [2]: 5.83 G/DL | URIC ACID [2]: 1.63 mg/dL | ABSOLUTE BASOPHIL [3]: 0 CELLS/uL | ABSOLUTE EOSINOPHIL [3]: 201.33 CELLS/uL | ABSOLUTE LYMPHOCYTE [3]: 17920 CELLS/uL | ABSOLUTE MONOCYTE [3]: 282 CELLS/uL | ABSOLUTE SEGMENTED NEUTROPHIL [3]: 1130 CELLS/uL | BASOPHIL [3]: 0% | EOSINOPHIL [3]: 0.67% | ERYTHROCYTE COUNT [3]: 5.8 x10E6/uL | HEMATOCRIT [3]: 36.67% | HEMOGLOBIN [3]: 14.43 G/DL | LEUKOCYTE COUNT [3]: 19.53 x10E3/uL | LYMPHOCYTE [3]: 92% | MEAN CORPUSCULAR HEMOGLOBIN [3]: 24.93 pg | MEAN CORPUSCULAR HEMOGLOBIN CONCENTRATION [3]: 39.37 G/DL | MEAN CORPUSCULAR VOLUME [3]: 63.27 fL | MONOCYTE [3]: 1.33% | NEUTROPHIL [3]: 6% | NUCLEATED RED BLOOD CELLS [3]: 0 /100WBC | PLATELET COUNT [3]: 1228 x10E3/uL | ALANINE AMINOTRANSFERASE [3]: 45 u/L | ALBUMIN [3]: 4.27 G/DL | ALKALINE PHOSPHATASE [3]: 348 u/L | ASPARTATE AMINOTRANSFERASE [3]: 85.67 u/L | BLOOD UREA NITROGEN [3]: 15.67 mg/dL | CARBON DIOXIDE [3]: 27 mmol/L | CHLORIDE [3]: 102 MEQ/L | CHOLESTEROL [3]: 91.67 mg/dL | CREATINE PHOSPHOKINASE [3]: 407 u/L | CREATININE [3]: 0.2 mg/dL | GLUCOSE [3]: 135.33 mg/dL | LACTATE DEHYDROGENASE [3]: 202.33 u/L | LIPASE [3]: 9.67 u/L | PHOSPHORUS [3]: 12.33 mg/dL | POTASSIUM [3]: 5.98 MEQ/L | SODIUM [3]: 144.7 MEQ/L | TOTAL BILIRUBIN [3]: 0.13 mg/dL | TOTAL PROTEIN [3]: 5.67 G/DL | URIC ACID [3]: 1.47 mg/dL | ABSOLUTE BASOPHIL [4]: 0 CELLS/uL | ABSOLUTE EOSINOPHIL [4]: 57.67 CELLS/uL | ABSOLUTE LYMPHOCYTE [4]: 16939.67 CELLS/uL | ABSOLUTE MONOCYTE [4]: 123 CELLS/uL | ABSOLUTE SEGMENTED NEUTROPHIL [4]: 946.33 CELLS/uL | BASOPHIL [4]: 0% | EOSINOPHIL [4]: 0.33% | ERYTHROCYTE COUNT [4]: 6.33 x10E6/uL | HEMATOCRIT [4]: 38.47% | HEMOGLOBIN [4]: 15.33 G/DL | LEUKOCYTE COUNT [4]: 18.07 x10E3/uL | LYMPHOCYTE [4]: 93.67% | MEAN CORPUSCULAR HEMOGLOBIN [4]: 24.23 pg | MEAN CORPUSCULAR HEMOGLOBIN CONCENTRATION [4]: 39.87 G/DL | MEAN CORPUSCULAR VOLUME [4]: 60.77 fL | MONOCYTE [4]: 0.67% | NEUTROPHIL [4]: 5.33% | NUCLEATED RED BLOOD CELLS [4]: 0 /100WBC | PLATELET COUNT [4]: 1501 x10E3/uL | ALANINE AMINOTRANSFERASE [4]: 44 u/L | ALBUMIN [4]: 4.3 G/DL | ALKALINE PHOSPHATASE [4]: 312.33 u/L | ASPARTATE AMINOTRANSFERASE [4]: 75.67 u/L | BLOOD UREA NITROGEN [4]: 16 mg/dL | CARBON DIOXIDE [4]: 26 mmol/L | CHLORIDE [4]: 100.67 MEQ/L | CHOLESTEROL [4]: 75.67 mg/dL | CREATINE PHOSPHOKINASE [4]: 226.33 u/L | CREATININE [4]: 0.15 mg/dL | GLUCOSE [4]: 155.33 mg/dL | LACTATE DEHYDROGENASE [4]: 246.67 u/L | LIPASE [4]: 10.33 u/L | PHOSPHORUS [4]: 12.43 mg/dL | POTASSIUM [4]: 6.84 MEQ/L | SODIUM [4]: 143.43 MEQ/L | TOTAL BILIRUBIN [4]: 0.17 mg/dL | TOTAL PROTEIN [4]: 6.2 G/DL | URIC ACID [4]: 2.3 mg/dL

Reference: ChEMBL document CHEMBL3885881, “DrugMatrix”
